We go through 1 compound from patent publication US20240327359A1, “3-ISOXAZOLIDINONE COMPOUND, PREPARATION METHOD, HERBICIDAL COMPOSITION AND APPLICATION THEREOF” (QINGDAO KINGAGROOT CHEMICAL COMPOUND CO., LTD., priority 2021, published 2024).

Molecules are shown by their SMILES.

Common to all, as to format: in vivo
The test system of one series is Galium aparine. Nature of the series: Activity test of the compositions, post-emergence treatment by foliage spray. The following applies: foliage (F), A 16 g a.i./mu. The method, then:
(§1) The desired active ingredient B was purchased from a reagent company or synthesized by a known method. The technical materials were all dissolved in acetone and diluted with an aqueous solution containing 0.10% emulsifier Tween-80 which were to be used immediately after dilution.
(§2) Weeds were cultivated by a pot culture method. […] Weed seeds with plump and uniform grains were selected, soaked in lukewarm water at 25° C. for 6 hours, and germinated in a 28° C. biochemical incubator (in darkness). The weed seeds that had just germinated were evenly placed on the surface of the soil and then covered with 0.5-1 cm soil according to the sizes of seeds.
(§3) Each treatment was repeated 4 times. Four pots with 20 weed seeds per pot were treated each time.
(§4) The agents were used for only once in total in the experiment. In the stage of 1.5-2 leaves, the weeds were thinned out to maintain 10 weeds per pot. Ten weeds were kept in each treatment, then continued to be cultured until Echinochloa crus-galli var. zelayensis reached the stage of 2-3 leaves, Cirsium setosum reached the stage of 5-6 leaves, Galium aparine reached the stage of 3-4 whorl leaves, Amaranthus retroflexus reached the stage of 3-5 leaves, Echinochloa crusgalli, Lolium multiflorum and Digitaria sanguinalis reached the stage of 3 leaves with one leaf not fully expanding for further treatment.
(§5) The well-cultured test materials were evenly placed on a platform with an area of 0.5 m^2, and solution of agents was sprayed on the stems and leaves thereof by the 3WP-2000-type walking spray tower at a dosage of 450 kg/ha and at a spray pressure of 0.3 MPa. After all the solution was sprayed, the valve was closed. After 30 seconds, the door of the spray tower was opened, and the nutritional bowl was taken out. Then the valve was opened, and the spray tube was cleaned by spraying 50 ml of water. After the treatment, the weeds were routinely cultured in a greenhouse.
(§6) A method for investigating absolute numbers was employed. Whole seedlings of survival weeds were cut off with a blade along the soil surface, and the fresh weight of the weeds was weighed with an analytical balance. For dead weeds, the fresh weight thereof was zero.
(§7) The investigation was performed 21 days after the treatment for only once in total.

For another series, the system named is Digitaria sanguinalis. The description is as above. The method, then:
as §1, §2
(§8) The culture was carried out in a controllable sunlight greenhouse at 20 to 30° C., in natural light, and with relative humidity of 57% to 72%.
as §3, §4, §5, §6, §7

A further series concerns Cirsium setosum. The description is as above. The following applies: foliage (F), A 32 g a.i./mu. On the procedure: as §1, §2, §8, §3, §4, §5, §6, §7
In the next series the test system is Lolium multiflorum. Described as above. The following applies: foliage (F), A 16 g a.i./mu. On the procedure: as §1, §2, §8, §3, §4, §5, §6, §7
The subject of another series is cotton. Nature of the series: Pre-emergence stage, crop damage. To be noted: 2 weeks. The text has this:
(§9) The activity level criteria for plant damage (i.e., growth control rate) are as follows:
(§10) The above growth control rates are fresh weight control rates.
(§11) Monocotyledonous and dicotyledonous weed seeds (Descurainia sophia, Capsella bursa-pastoris, Abutilon theophrasti, Galium aparine, Stellaria media, Lithospermum arvense, Rorippa indica, Alopecurus aequalis, Alopecurus japonicus, Eleusine indica, Beckmannia syzigachne, Sclerochloa dura, Phleum paniculatum, Veronica didyma, Bromus japonicus, Aegilops tauschii, Phalaris arundinacea, Amaranthus retroflexus, Chenopodiaceae, Commelina communis, Sonchus arvensis, Convolvulus arvensis, Cirsium setosum, Solanumnigrum, Acalypha australis, Digitaria sanguinalis, Echinochloa crusgalli, Setaria viridis, Setaria glauca, Leptochloa chinensis, Monochoria vaginalis, Sagittaria trifolia, Scirpus juncoides, Cyperus rotundus, Cyperus iria, Cyperus difformis, Fimbristylis, Portulaca oleracea, Xanthium sibiricum, Pharbitis nil, Conyza Canadensis, etc.) and major crop seeds (wheat, corn, rice, soybean, cotton, oilseed rape, millet, sorghum, potato, sesame, ricinus, etc.) were placed in plastic pots filled with soil, then covered with 0.5-2 cm of soil, allowed to grow in a good greenhouse environment. The test plants were treated on the day of sowing. The tested compounds of the present invention were respectively dissolved in acetone, then added with Tween 80, diluted with a certain amount of water to obtain a solution of a certain concentration, and sprayed by a spray tower onto the plants. After the application, the plants were cultured for 2 weeks in the greenhouse, and then the experimental results of the weeding were recorded. The doses of the used compounds were 3, 6, 12, 24, 48 g ai./mu (1 mu=1/15 ha), and the averages were obtained from three replicates.

The subject of a further series is peanut. Nature of the series: Pre-emergence stage, crop damage. To be noted: 48 g a.i./mu, 2 weeks.
Description: as §9, §10, §11

Another series deals with wheat. Description: Pre-emergence stage, crop damage. To be noted: 2 weeks.
Description: as §9, §10, §11

Another series concerns corn. Description: Pre-emergence stage, crop damage. To be noted: 24 g a.i./mu, 2 weeks.
Description: as §9, §10, §11

Another series deals with soy bean. Description: Pre-emergence stage, crop damage. The following applies: 2 weeks.
Description: as §9, §10, §11

In a further series the test system is rice. Description: Pre-emergence stage, crop damage. To be noted: 2 weeks.
Description: as §9, §10, §11

Series [1] has as its system spinach, radish, Chinese cabbage, sesame, rape, cucumber, watermelon, melon, pumpkin, cassava, soybean, kidney bean, cowpea, common bean, hyacinth bean, sponge …. Nature of the series: Field test, crop safety. The following applies: applied after planting and pre-emergence at 300 g a.i./ha.
The test system of series [2] is Echinochloa crusgalli, Scirpus juncoides, Bidens tripartita L., Sagittaria trifolia; rice (japonica rice). Nature of the series: Transplanted rice safety evaluation and weed control effect evaluation in rice field. To be noted: weeds 14 days, rice 21 days after treatment; observed with the naked eye. The method, then: Rice field soil was loaded into a 1/1,000,000 ha pot. The seeds of Echinochloa crusgalli, Scirpus juncoides, and Bidens tripartita L. were sowed and gently covered with soil, then placed in a greenhouse with water storage of 0.5-1 cm deep. The tuber of Sagittaria trifolia was planted in the next day or 2 days later. The water storage was kept at a depth of 3-4 cm thereafter. The weeds were treated by homogeneously dripping the WP or SC water diluents of the compounds of the present invention prepared according to the common preparation methods with a pipette to the specified effective amount when the Echinochloa crusgalli, Scirpus juncoides, and Bidens tripartita L. reached their 0.5 leaf stages and the Sagittaria trifolia reached the time point of the primary leaf stage.
In addition, the rice field soil that loaded into the 1/1,000,000 ha pot was leveled to keep water storage at a depth of 3-4 cm. […]
The development condition of Echinochloa crusgalli, Scirpus juncoides, Bidens tripartita L., and Sagittaria trifolia 14 days after the treatment of the compound of the invention and the development condition of rice 21 days after the treatment of the compound of the invention were respectively observed with the naked eye. The weed control effect was evaluated according to the above activity level criteria. […]

Regarding `CC1(C)CON(Cc2ccc(Cl)cc2Br)C1=O` [Compound 1], the “Control effect (%) of A applied alone (A)” value came to 55.4% with Galium aparine; 42.3% with Digitaria sanguinalis (foliage (F), A 16 g a.i./mu); 42.3% in the series on Digitaria sanguinalis (foliage treatment (F), A at 16 g a.i./mu, fresh weight inhibition 21 days after treatment); 64.2% in the series on Cirsium setosum; 56.7% in the series with Lolium multiflorum. The “plant damage level (growth control rate) on crop, pre-emergence stage” value in the series on cotton (12 g a.i./mu), in the series with cotton (24 g a.i./mu), with peanut, with wheat (6 g a.i./mu), in the series with wheat (12 g a.i./mu) and in the series on wheat (24 g a.i./mu) was 0 each time. The “plant damage level (growth control rate) on crop, pre-emergence stage” value in the series with corn was 0; in the series with soy bean (24 g a.i./mu), 0; in the series with soy bean (48 g a.i./mu) it was 0; in the series on rice (6 g a.i./mu) it was 0; in the series on rice (12 g a.i./mu) it was 0; in the series with rice (24 g a.i./mu), 1 (Level 1: growth control rate is greater than 0% and less than 15%). In addition, the “crop safety in field test” value in series [1] is given as “safe”. The “weed control effect and transplanted rice safety in rice field” value in series [2] is “excellent activity and selectivity”.
